Here are results for 23 compounds from ChEMBL document CHEMBL5291721, “A preclinical secondary pharmacology resource illuminates target-adverse drug reaction associations of marketed drugs” (Nat Commun, 2023).

Molecules are shown by their SMILES.

As a reminder, the AC50 is the concentration at which the activity in the assay is half-maximal. A low value points to activity at low concentration.

Assay [1] addresses T1, Alpha-2A adrenergic receptor (Homo sapiens, UniProt P08913).
T1 sequence (P08913 whole entry): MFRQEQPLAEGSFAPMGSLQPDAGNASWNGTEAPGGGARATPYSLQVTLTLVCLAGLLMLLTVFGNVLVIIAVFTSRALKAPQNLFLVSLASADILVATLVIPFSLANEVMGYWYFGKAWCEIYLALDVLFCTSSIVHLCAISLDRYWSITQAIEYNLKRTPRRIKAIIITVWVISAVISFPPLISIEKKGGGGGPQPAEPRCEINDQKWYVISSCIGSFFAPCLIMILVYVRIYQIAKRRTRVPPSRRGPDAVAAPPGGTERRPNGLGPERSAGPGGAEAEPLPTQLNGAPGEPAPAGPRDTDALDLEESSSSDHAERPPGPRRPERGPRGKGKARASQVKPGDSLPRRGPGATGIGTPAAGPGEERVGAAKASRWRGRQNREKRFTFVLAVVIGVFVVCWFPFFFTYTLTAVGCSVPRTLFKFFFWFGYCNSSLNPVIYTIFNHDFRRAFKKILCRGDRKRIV
The assay is classed as functional, cell-based.

The next assay has as its target Cannabinoid receptor 1 (Homo sapiens, UniProt P21554).
Another assay concerns the target T2, Glucocorticoid receptor (Homo sapiens, UniProt P04150).
T2 sequence (P04150 whole entry): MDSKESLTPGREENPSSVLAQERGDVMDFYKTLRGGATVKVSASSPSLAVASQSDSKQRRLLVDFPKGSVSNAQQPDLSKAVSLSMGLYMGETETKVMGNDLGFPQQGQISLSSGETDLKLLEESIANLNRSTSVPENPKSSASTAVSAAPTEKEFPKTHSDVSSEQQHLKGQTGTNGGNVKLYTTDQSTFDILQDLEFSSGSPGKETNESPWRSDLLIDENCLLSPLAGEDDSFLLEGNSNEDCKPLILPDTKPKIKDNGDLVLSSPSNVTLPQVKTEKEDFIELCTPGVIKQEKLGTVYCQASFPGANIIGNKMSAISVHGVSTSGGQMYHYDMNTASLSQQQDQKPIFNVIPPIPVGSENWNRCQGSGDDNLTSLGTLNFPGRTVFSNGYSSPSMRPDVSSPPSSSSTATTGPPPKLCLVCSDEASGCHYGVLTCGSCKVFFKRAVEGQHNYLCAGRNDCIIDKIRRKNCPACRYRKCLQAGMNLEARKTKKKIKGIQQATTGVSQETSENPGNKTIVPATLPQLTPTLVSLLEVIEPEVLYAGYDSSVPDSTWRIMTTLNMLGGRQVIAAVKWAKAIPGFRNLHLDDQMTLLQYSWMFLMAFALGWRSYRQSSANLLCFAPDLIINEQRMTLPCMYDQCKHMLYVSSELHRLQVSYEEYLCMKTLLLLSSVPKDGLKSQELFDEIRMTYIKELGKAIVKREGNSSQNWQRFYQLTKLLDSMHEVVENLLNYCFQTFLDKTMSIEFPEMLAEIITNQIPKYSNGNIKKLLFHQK

A further assay addresses Melanocortin receptor 3 (Homo sapiens, UniProt P41968).
In assay [2] the target is cGMP-inhibited 3',5'-cyclic phosphodiesterase 3A (Homo sapiens, UniProt Q14432). The assay is classed as functional.
Sequence of cGMP-inhibited 3',5'-cyclic phosphodiesterase 3A (Q14432 whole entry): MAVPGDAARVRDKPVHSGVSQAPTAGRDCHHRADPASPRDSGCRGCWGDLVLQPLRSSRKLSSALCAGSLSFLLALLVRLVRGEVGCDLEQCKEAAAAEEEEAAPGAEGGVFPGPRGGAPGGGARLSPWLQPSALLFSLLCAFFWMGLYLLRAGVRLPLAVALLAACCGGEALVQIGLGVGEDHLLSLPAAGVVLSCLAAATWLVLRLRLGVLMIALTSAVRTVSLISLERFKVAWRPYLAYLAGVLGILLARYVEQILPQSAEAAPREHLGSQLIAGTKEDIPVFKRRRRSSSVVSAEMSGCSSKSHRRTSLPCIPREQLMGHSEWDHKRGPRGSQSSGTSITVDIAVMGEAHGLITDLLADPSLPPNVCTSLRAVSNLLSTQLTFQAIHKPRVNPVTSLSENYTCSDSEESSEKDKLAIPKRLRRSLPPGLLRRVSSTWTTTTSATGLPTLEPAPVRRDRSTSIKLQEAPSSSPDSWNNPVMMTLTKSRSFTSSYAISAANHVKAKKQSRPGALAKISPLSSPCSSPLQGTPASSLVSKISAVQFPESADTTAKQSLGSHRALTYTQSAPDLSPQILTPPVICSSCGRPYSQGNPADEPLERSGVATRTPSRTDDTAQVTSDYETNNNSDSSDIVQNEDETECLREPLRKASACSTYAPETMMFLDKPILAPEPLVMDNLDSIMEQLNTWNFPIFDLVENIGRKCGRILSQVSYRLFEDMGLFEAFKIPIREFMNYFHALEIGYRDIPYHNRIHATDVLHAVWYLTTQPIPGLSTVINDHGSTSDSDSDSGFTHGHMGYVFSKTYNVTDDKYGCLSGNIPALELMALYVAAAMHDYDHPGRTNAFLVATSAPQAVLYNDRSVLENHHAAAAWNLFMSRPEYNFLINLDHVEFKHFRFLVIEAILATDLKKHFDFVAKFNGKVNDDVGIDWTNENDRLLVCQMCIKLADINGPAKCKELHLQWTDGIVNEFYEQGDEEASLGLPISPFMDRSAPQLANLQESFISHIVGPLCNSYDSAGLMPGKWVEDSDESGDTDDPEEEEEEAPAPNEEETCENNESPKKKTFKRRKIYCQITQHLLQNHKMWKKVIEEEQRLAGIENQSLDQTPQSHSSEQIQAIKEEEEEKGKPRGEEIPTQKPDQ
Assay [3] concerns the target Sodium-dependent noradrenaline transporter (Homo sapiens, UniProt P23975).
The target of assay [4] is T3, Gastrin/cholecystokinin type B receptor (Homo sapiens, UniProt P32239).
T3 sequence (P32239 whole entry): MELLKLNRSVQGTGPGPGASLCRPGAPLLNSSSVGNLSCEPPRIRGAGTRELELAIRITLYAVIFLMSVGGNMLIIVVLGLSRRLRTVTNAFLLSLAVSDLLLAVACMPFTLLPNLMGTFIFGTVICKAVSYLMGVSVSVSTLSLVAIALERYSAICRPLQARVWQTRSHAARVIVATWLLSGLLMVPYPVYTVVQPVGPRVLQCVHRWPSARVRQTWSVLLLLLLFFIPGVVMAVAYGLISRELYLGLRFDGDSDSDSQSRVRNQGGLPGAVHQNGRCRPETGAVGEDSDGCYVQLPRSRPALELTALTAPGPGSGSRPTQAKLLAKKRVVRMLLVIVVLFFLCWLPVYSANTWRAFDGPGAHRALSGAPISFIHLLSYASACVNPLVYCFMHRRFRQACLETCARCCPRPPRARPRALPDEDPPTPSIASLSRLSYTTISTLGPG

In assay [5] the target is Gamma-aminobutyric acid receptor subunit alpha-1 (Rattus norvegicus, UniProt P62813).
Sequence of Gamma-aminobutyric acid receptor subunit alpha-1 (P62813 whole entry): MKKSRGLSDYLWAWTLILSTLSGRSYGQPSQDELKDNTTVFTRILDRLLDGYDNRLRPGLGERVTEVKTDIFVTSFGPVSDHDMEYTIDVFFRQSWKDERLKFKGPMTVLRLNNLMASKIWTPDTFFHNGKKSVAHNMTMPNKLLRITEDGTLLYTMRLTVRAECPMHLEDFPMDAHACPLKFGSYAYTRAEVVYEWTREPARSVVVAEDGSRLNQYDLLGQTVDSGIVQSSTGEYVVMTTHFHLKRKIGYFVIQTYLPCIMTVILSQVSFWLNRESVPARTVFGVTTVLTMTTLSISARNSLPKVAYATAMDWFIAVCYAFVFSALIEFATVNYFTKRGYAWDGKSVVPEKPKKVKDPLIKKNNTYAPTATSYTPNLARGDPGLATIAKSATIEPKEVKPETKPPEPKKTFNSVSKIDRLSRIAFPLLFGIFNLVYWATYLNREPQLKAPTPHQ
Note: assay procedure not described here.

Sequence of Melanocortin receptor 3 (P41968 whole entry): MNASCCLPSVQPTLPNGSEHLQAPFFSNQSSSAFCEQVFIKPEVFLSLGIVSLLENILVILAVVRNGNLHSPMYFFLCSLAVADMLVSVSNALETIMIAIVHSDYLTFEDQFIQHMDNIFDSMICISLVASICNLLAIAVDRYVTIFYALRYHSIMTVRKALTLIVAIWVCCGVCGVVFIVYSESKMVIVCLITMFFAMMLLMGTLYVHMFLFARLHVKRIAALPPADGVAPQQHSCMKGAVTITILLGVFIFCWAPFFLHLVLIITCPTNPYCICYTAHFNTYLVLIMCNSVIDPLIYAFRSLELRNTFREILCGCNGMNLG
Sequence of Cannabinoid receptor 1 (P21554 whole entry): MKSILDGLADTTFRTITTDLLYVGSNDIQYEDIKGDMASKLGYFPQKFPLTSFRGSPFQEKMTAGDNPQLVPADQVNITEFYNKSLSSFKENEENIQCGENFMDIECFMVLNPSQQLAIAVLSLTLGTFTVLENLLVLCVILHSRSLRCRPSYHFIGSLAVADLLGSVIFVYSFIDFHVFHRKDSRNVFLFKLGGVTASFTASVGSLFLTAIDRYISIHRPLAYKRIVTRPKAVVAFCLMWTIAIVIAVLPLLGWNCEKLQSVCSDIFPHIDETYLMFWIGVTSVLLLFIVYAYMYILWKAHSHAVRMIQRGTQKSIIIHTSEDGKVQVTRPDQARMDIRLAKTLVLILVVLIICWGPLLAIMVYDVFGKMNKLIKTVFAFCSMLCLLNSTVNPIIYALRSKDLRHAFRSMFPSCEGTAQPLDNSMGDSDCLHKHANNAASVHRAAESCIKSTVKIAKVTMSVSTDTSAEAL
Sequence of Sodium-dependent noradrenaline transporter (P23975 whole entry): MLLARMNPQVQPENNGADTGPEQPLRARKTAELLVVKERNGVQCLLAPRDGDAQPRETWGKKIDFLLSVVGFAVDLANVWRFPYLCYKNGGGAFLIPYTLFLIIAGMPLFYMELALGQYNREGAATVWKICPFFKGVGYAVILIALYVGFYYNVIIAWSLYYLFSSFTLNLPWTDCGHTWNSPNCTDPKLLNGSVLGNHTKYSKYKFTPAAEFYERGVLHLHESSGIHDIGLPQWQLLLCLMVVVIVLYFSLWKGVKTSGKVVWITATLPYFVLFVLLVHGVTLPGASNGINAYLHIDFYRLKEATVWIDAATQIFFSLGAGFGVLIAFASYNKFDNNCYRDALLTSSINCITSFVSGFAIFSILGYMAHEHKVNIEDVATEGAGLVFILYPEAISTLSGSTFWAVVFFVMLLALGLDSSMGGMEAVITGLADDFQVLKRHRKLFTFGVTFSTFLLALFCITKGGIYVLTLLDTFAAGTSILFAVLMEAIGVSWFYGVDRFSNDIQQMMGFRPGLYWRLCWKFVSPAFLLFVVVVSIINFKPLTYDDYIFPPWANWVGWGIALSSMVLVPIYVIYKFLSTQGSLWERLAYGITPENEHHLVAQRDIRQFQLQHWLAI

Take `C[N+]1(C)CCC(=C(c2ccccc2)c2ccccc2)CC1`: the AC50 was more than 10 µM in assay [1]; more than 10 µM at Cannabinoid receptor 1; more than 10 µM on Glucocorticoid receptor; more than 30 µM on Melanocortin receptor 3; more than 30 µM in assay [2]; more than 10 µM in assay [3]. In assay [4], this compound came in with an AC50 of more than 30 µM.

In turn, `Cc1cc2c(cc1S(N)(=O)=O)S(=O)(=O)CCC2` had an AC50 in assay [5] of more than 30 µM.

For the compound `CN(C)Cc1nnc2n1-c1ccc(Cl)cc1C(c1ccccc1)=NC2` [ADINAZOLAM], the AC50 was more than 10 µM in assay [1]; more than 10 µM at Cannabinoid receptor 1; more than 10 µM at Glucocorticoid receptor; more than 10 µM at Melanocortin receptor 3; more than 30 µM in assay [2]; more than 10 µM in assay [3].

Turning to `Cc1ccccc1-n1c(CF)nc2ccc(N)cc2c1=O` [AFLOQUALONE], the AC50 is more than 10 µM in assay [1]; more than 10 µM at Cannabinoid receptor 1; more than 30 µM at Melanocortin receptor 3; more than 30 µM in assay [2]; more than 30 µM in assay [3]; more than 30 µM in assay [4].

Consider `CCOC(=O)c1ccc(N)cc1` [BENZOCAINE], for which the AC50 in assay [1] is more than 10 µM; on Cannabinoid receptor 1, more than 10 µM; at Glucocorticoid receptor, more than 10 µM; on Melanocortin receptor 3 it was more than 10 µM; in assay [2] it was more than 30 µM; in assay [3], more than 10 µM.

As for `CC(C)(Oc1ccc(CCNC(=O)c2ccc(Cl)cc2)cc1)C(=O)O` [BEZAFIBRATE], the AC50 in assay [1] was more than 10 µM; on Cannabinoid receptor 1, more than 10 µM; on Glucocorticoid receptor, more than 10 µM; on Melanocortin receptor 3 it was more than 10 µM; in assay [2] it was more than 30 µM; in assay [3], more than 10 µM.

On to `O=C(O)COCCN1CCN(C(c2ccccc2)c2ccc(Cl)cc2)CC1` (stereo not given) [CETIRIZINE], for which the AC50 in assay [1] was more than 10 µM; on Cannabinoid receptor 1 it was more than 10 µM; on Melanocortin receptor 3, more than 30 µM; in assay [2] it was more than 30 µM; in assay [4], more than 30 µM.

In the case of `C/C=C(/C(=C/C)c1ccc(O)cc1)c1ccc(O)cc1` [DIENESTROL], the AC50 is more than 10 µM in assay [1]; more than 10 µM on Cannabinoid receptor 1; 0.736 µM at Glucocorticoid receptor; more than 10 µM at Melanocortin receptor 3; more than 30 µM in assay [2]; more than 30 µM in assay [3].

In the case of `CN[C@]1(c2ccccc2Cl)CCCCC1=O` [ESKETAMINE], the AC50 (in assay [1]; at Cannabinoid receptor 1; at Glucocorticoid receptor; on Melanocortin receptor 3; in assay [2]; in assay [3]) was more than 30 µM throughout. In addition, in assay [4], the AC50 is more than 30 µM.

With `COc1ccc([C@@H]2CC(=O)c3c(O)cc(O)cc3O2)cc1O` [HESPERETIN], the AC50 in assay [1] is more than 10 µM; at Cannabinoid receptor 1, more than 10 µM; on Glucocorticoid receptor, more than 10 µM; on Melanocortin receptor 3, more than 10 µM; in assay [2], 21 µM; in assay [3] it was more than 10 µM.

As to `CN(C)CCCN1c2ccccc2CCc2ccccc21` [IMIPRAMINE], the AC50 in assay [1] was more than 10 µM; on Cannabinoid receptor 1 it was 0.174 µM; on Glucocorticoid receptor it was more than 30 µM; at Melanocortin receptor 3 it was 18.8 µM; in assay [2], more than 10 µM; in assay [4] it was more than 30 µM.

As for `CCC[C@@H]1C[C@@H](C(=O)N[C@@H]([C@H]2O[C@H](SC)[C@H](O)[C@@H](O)[C@H]2O)[C@@H](C)O)N(C)C1` [LINCOMYCIN], the AC50 in assay [1] is more than 30 µM; at Cannabinoid receptor 1 it was more than 10 µM; on Glucocorticoid receptor, more than 10 µM; on Melanocortin receptor 3 it was more than 10 µM; in assay [2] it was more than 30 µM; in assay [3] it was more than 10 µM.

Turning to `C=C1c2cccc(O)c2C(=O)C2=C(O)[C@]3(O)C(=O)C(C(N)=O)=C(O)[C@@H](N(C)C)[C@@H]3[C@@H](O)[C@H]12` [METHACYCLINE], the AC50 in assay [1] is more than 10 µM; at Cannabinoid receptor 1, more than 10 µM; on Glucocorticoid receptor, more than 30 µM; at Melanocortin receptor 3 it was more than 30 µM; in assay [2] it was more than 30 µM; in assay [3], more than 10 µM. The compound further registered a half-maximal activity concentration (AC50) in assay [4] of more than 30 µM.

Consider `CN(Cc1cnc2nc(N)nc(N)c2n1)c1ccc(C(=O)N[C@@H](CCC(=O)O)C(=O)O)cc1` [METHOTREXATE], for which the AC50 in assay [1] was more than 10 µM; at Cannabinoid receptor 1, more than 10 µM; at Melanocortin receptor 3, more than 30 µM; in assay [2], more than 30 µM; in assay [3], more than 30 µM; in assay [4] it was more than 30 µM.

Regarding `Cc1ccccc1N1C(=O)c2cc(S(N)(=O)=O)c(Cl)cc2NC1C` (stereo not given) [METOLAZONE], the AC50 in assay [1] is more than 10 µM; at Cannabinoid receptor 1, more than 10 µM; at Glucocorticoid receptor it was more than 10 µM; on Melanocortin receptor 3, more than 10 µM; in assay [2] it was more than 30 µM; in assay [3] it was more than 10 µM.

Turning to `O=C(O)c1cccnc1Nc1cccc(C(F)(F)F)c1` [NIFLUMIC ACID], the AC50 was more than 10 µM in assay [1]; more than 10 µM on Cannabinoid receptor 1; more than 10 µM on Glucocorticoid receptor; more than 10 µM on Melanocortin receptor 3; more than 30 µM in assay [2]; more than 10 µM in assay [3].

Take `O=C1c2cccc3c2[C@H](CCC3)CN1[C@@H]1CN2CCC1CC2` [PALONOSETRON]: the AC50 in assay [1] was 25 µM; at Cannabinoid receptor 1, more than 30 µM; at Glucocorticoid receptor it was more than 30 µM; on Melanocortin receptor 3, more than 30 µM; in assay [2], more than 30 µM; in assay [3] it was more than 30 µM. Also, in assay [4], the AC50 was more than 30 µM.

In the case of `O=C1c2ccccc2C(=O)C1c1ccccc1` [PHENINDIONE], the AC50 was more than 10 µM in assay [1]; more than 10 µM at Cannabinoid receptor 1; more than 10 µM at Glucocorticoid receptor; more than 10 µM at Melanocortin receptor 3; more than 30 µM in assay [2]; more than 10 µM in assay [3].

`CCCN1CC(NS(=O)(=O)N(CC)CC)CC2Cc3c(O)cccc3CC21` (stereo not given) [QUINAGOLIDE]: the AC50 was more than 30 µM in assay [1]; more than 30 µM at Glucocorticoid receptor; more than 30 µM on Melanocortin receptor 3; more than 30 µM in assay [2]; 21 µM in assay [3]; more than 30 µM in assay [4].

`COC(=O)[C@H]1[C@H]2C[C@@H]3c4[nH]c5cc(OC)ccc5c4CCN3C[C@H]2C[C@@H](OC(=O)c2cc(OC)c(OC)c(OC)c2)[C@@H]1OC` [RESERPINE]: the AC50 in assay [1] is more than 10 µM; on Cannabinoid receptor 1, more than 10 µM; at Glucocorticoid receptor, more than 10 µM; on Melanocortin receptor 3, more than 10 µM; in assay [2], more than 30 µM; in assay [3], more than 30 µM.

As to `C[C@]12CCC(=O)C[C@@H]1CC[C@@H]1[C@@H]2CC[C@]2(C)[C@@H](O)CC[C@@H]12` [STANOLONE], the AC50 (in assay [1]; on Cannabinoid receptor 1; at Melanocortin receptor 3; in assay [2]; in assay [3]; in assay [4]) was more than 30 µM throughout.

Turning to `C[C@]12C=CC(=O)C=C1CC[C@@H]1[C@@H]2CC[C@]2(C)OC(=O)CC[C@@H]12` [TESTOLACTONE], the AC50 in assay [1] was more than 30 µM; at Cannabinoid receptor 1 it was more than 10 µM; on Melanocortin receptor 3, more than 10 µM; in assay [2], more than 30 µM; in assay [3] it was more than 10 µM.

Turning to `CCOC(=O)c1c(CSc2ccccc2)n(C)c2cc(Br)c(O)c(CN(C)C)c12` [UMIFENOVIR], the AC50 in assay [1] was more than 30 µM; on Glucocorticoid receptor it was more than 30 µM; at Melanocortin receptor 3, more than 30 µM; in assay [2] it was more than 30 µM; in assay [3], 21 µM; in assay [4], more than 30 µM.
